Assays:
[1] = molecular target: Metabotropic glutamate receptor 5 (Rattus norvegicus, UniProt P31424); test: Negative allosteric modulation of rat mGlu5 receptor expressed in HEK293A cells assessed as inhibition of glutamate-induced calcium mobilization preincubated for 140 seconds prior to glutamate-stimulation measured after 60 seconds; type: functional, cell-based, HEK293-A
[2] = molecular target: Metabotropic glutamate receptor 5 (Rattus norvegicus) (UniProt P31424); test: Negative allosteric modulation of rat mGlu5 receptor expressed in HEK293A cells assessed as inhibition of glutamate-induced calcium mobilization at 30 uM preincubated for 140 seconds prior to glutamate-stimulation measured after 60 seconds relative to glutamate; type: functional, cell-based; conditions: HEK293-A
Brain [3] = test: Fraction unbound in mouse brain homogenates by equilibrium dialysis technique; type: ADME, tissue-based; conditions: brain homogenate
Cytochrome P450 3A4 = Cytochrome P450 3A4 (Homo sapiens, UniProt P08684); test: Inhibition of CYP3A4 in human liver microsomes in presence of NADPH; type: ADME, Microsome
[4] = Ratio of drug level in brain to plasma in CD-1 mouse at 10 mg/kg, ip by LC-MS/MS analysis; type: ADME, organism-based; design: dose 10 mg/kg, route intraperitoneal; conditions: brain and plasma, read-out: BPR
Plasma [5] = test: AUC in CD-1 mouse plasma at 10 mg/kg, ip by LC-MS/MS analysis; type: ADME, organism-based; design: dose 10 mg/kg, route intraperitoneal; conditions: in vivo
[6] = Cmax in CD-1 mouse brain at 10 mg/kg, ip by LC-MS/MS analysis; type: ADME, organism-based; design: dose 10 mg/kg, route intraperitoneal
Brain [7] = test: AUC in CD-1 mouse brain at 10 mg/kg, ip by LC-MS/MS analysis; type: ADME, organism-based; design: dose 10 mg/kg, route intraperitoneal; conditions: in vivo
Plasma [8] = test: Tmax in CD-1 mouse plasma at 10 mg/kg, ip by LC-MS/MS analysis; type: ADME, organism-based; design: dose 10 mg/kg, route intraperitoneal; conditions: in vivo
Plasma [9] = test: Cmax in CD-1 mouse plasma at 10 mg/kg, ip by LC-MS/MS analysis; type: ADME, organism-based; design: dose 10 mg/kg, route intraperitoneal; conditions: in vivo
Brain [10] = test: Tmax in CD-1 mouse brain at 10 mg/kg, ip by LC-MS/MS analysis; type: ADME, organism-based; design: dose 10 mg/kg, route intraperitoneal; conditions: in vivo

Cytochrome P450 3A4, sequence (P08684 whole entry): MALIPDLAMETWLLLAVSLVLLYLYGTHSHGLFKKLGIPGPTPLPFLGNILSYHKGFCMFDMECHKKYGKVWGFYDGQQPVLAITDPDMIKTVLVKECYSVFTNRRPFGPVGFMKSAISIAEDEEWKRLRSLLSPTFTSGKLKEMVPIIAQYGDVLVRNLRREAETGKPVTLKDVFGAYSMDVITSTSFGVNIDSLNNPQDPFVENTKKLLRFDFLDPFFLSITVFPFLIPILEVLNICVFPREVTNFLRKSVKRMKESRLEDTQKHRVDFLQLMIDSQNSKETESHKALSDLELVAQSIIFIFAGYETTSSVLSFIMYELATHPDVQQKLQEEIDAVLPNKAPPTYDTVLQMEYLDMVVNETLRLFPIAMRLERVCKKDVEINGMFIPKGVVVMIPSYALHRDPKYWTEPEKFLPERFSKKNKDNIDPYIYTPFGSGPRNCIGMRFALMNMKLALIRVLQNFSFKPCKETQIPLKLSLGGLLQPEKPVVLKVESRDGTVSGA
Metabotropic glutamate receptor 5 (Rattus norvegicus), sequence (P31424 21-1203 limits assumed): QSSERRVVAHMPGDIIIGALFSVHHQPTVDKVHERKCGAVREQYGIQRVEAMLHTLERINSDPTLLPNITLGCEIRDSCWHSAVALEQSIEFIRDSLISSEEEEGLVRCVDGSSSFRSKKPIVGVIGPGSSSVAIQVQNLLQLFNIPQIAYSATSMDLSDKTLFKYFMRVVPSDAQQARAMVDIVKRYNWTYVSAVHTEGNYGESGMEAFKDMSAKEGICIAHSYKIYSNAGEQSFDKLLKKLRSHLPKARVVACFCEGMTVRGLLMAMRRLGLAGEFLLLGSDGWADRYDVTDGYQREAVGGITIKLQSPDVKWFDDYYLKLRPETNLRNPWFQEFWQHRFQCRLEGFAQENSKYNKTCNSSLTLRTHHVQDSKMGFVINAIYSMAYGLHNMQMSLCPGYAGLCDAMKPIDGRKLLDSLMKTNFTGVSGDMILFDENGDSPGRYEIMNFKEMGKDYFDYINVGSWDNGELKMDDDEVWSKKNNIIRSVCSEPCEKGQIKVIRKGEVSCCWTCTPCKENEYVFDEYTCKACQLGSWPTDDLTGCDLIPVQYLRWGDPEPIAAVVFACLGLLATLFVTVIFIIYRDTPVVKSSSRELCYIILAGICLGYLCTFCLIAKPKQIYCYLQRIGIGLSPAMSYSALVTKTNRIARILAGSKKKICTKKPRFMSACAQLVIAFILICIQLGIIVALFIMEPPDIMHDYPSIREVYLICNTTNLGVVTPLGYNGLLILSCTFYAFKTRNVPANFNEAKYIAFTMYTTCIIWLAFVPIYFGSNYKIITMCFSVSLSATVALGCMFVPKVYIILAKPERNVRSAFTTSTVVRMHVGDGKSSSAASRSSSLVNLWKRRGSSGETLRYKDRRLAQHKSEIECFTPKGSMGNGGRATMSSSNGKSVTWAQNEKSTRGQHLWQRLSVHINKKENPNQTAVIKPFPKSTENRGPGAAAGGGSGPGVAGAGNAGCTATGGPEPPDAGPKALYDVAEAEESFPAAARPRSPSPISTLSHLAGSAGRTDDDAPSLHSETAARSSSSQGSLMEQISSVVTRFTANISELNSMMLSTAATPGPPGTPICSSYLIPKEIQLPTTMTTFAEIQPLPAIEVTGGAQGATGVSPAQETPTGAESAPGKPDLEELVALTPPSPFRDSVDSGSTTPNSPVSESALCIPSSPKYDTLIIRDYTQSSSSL
Metabotropic glutamate receptor 5, sequence (P31424 whole entry): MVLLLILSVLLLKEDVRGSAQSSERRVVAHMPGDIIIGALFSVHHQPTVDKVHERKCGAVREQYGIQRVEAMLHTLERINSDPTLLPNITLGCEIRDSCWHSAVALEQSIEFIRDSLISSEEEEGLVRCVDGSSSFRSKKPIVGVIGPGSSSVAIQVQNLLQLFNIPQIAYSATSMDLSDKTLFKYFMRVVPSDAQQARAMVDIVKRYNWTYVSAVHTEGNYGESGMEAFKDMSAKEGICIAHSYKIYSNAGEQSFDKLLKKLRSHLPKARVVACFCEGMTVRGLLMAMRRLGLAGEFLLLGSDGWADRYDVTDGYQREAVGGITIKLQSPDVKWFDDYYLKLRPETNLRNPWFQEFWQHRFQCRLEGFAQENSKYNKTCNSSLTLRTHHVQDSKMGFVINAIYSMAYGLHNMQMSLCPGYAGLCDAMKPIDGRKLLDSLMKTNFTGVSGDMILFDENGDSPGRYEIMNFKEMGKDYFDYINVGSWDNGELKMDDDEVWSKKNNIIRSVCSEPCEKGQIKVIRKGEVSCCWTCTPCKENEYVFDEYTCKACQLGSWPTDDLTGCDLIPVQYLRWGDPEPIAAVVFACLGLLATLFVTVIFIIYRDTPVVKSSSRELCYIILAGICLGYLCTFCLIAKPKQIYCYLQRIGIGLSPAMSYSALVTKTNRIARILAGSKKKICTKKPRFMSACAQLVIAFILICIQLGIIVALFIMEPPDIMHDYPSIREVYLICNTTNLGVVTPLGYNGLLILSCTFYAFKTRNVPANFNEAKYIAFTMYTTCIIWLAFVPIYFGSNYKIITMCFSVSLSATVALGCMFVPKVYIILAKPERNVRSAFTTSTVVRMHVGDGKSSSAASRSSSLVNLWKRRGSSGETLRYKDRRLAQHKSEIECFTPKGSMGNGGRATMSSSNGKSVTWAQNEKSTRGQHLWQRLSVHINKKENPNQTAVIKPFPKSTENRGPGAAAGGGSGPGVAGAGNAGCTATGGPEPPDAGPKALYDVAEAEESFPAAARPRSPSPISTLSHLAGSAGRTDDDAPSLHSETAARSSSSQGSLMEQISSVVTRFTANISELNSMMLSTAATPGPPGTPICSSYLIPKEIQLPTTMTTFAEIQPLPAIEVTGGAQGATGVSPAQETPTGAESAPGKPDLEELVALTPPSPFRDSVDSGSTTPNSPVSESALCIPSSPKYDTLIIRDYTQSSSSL

Compound	%max [2] [%]	IC50 [1] [nM]	also measured
O=C(Nc1ccc(F)cn1)c1cccc(Oc2cccnc2)c1	–	3780	–
O=C(Nc1cccc(F)n1)c1cc(Cl)cc(Oc2cncnc2)c1	–	–	Fu (Brain [3]): 0.057; IC50 (Cytochrome P450 3A4): < 100 nM
Cc1nc(NC(=O)c2cc(Cl)cc(Oc3cncnc3)c2)ccc1F	–	50	–
Cc1csc(NC(=O)c2cccc(Oc3cncnc3)c2)n1	–	205	–
Cc1cc(NC(=O)c2cc(Cl)cc(Oc3cncnc3)c2)ncc1F	–	3250	–
Cc1csc(NC(=O)c2cc(Cl)cc(Oc3cncnc3)c2)n1	–	–	Fu (Brain [3]): 0.025; IC50 (Cytochrome P450 3A4): 2200 nM
Cc1csc(NC(=O)c2cccc(Oc3cccnc3)c2)n1	–	772	–
Cc1nc(NC(=O)c2cc(F)cc(Oc3cncnc3)c2)sc1F	–	54	–
O=C(Nc1ccc(F)c(C(F)F)n1)c1cc(Cl)cc(Oc2cncnc2)c1	–	502	–
CCc1ccnc(NC(=O)c2cc(Cl)cc(Oc3cncnc3)c2)c1	–	4450	–
O=C(Nc1nc(C(F)F)cs1)c1cc(Cl)cc(Oc2cncnc2)c1	–	310	–
O=C(Nc1nccs1)c1cc(F)cc(Oc2cncnc2)c1	–	1790	–
O=C(Nc1ccc(F)cn1)c1cc(Cl)cc(Oc2cncnc2)c1	–	–	Kp [4]: 0.93; Fu (Brain [3]): 0.08; IC50 (Cytochrome P450 3A4): 6200 nM; AUC (Plasma [5]): 391 ng·h/mL; Cmax [6]: 311 ng/g; AUC (Brain [7]): 365 ng·h/g; Tmax (Plasma [8]): 30 min; Cmax (Plasma [9]): 303 ng/mL; Tmax (Brain [10]): 15 min
Cc1cc(Oc2cncnc2)cc(C(=O)Nc2ccc(F)cn2)c1	–	19	–
Cc1cccc(NC(=O)c2cc(Cl)cc(Oc3cncnc3)c2)n1	–	–	Fu (Brain [3]): 0.052; IC50 (Cytochrome P450 3A4): 4300 nM
O=C(Nc1ccc(Cl)cn1)c1cc(Cl)cc(Oc2cncnc2)c1	–	103	–
COc1cccc(NC(=O)c2cc(F)cc(Oc3cncnc3)c2)n1	–	668	–
O=C(Nc1cccc(Cl)n1)c1cc(Cl)cc(Oc2cncnc2)c1	–	–	Fu (Brain [3]): 0.019; IC50 (Cytochrome P450 3A4): 1900 nM

Continued, in another order:

%max [2] [%]	Compound	IC50 [1] [nM]	also measured
2.6	Cc1ncc(Oc2cc(Cl)cc(C(=O)Nc3ccc(F)cn3)c2)cn1	4470	–
1.1	O=C(Nc1ccc(F)cn1)c1cc(Cl)cc(Oc2cncc(F)c2)c1	25	Fu (Brain [3]): 0.007; IC50 (Cytochrome P450 3A4): 1300 nM
1.6	Cc1cccc(NC(=O)c2cc(Cl)cc(Oc3cnc(C)nc3)c2)n1	96	–
1.4	Cc1cccc(NC(=O)c2cccc(Oc3cccnc3)c2)c1	2190	–
1.6	Cc1cccc(NC(=O)c2cc(Cl)cc(Oc3cncc(C#N)c3)c2)n1	10	–
1.3	Nc1cc(NC(=O)c2cccc(Cl)c2)cc(Oc2cccnc2)c1	284	–
1.7	N#Cc1cncc(Oc2cc(Cl)cc(C(=O)Nc3ccc(F)cn3)c2)c1	27	Fu (Brain [3]): 0.016; IC50 (Cytochrome P450 3A4): 1700 nM
1.1	N#Cc1cc(Oc2cncnc2)cc(C(=O)Nc2ccc(F)cn2)c1	318	–
3.2	O=C(Nc1ccc(F)cn1)c1cc(Oc2cncnc2)cc(C(F)(F)F)c1	5530	–
1.7	Cc1csc(NC(=O)c2cc(Oc3cncnc3)cc(C(F)(F)F)c2)n1	283	–
1.8	Cc1cccc(NC(=O)c2cc(Cl)cc(Oc3cncc(F)c3)c2)n1	7.5	Fu (Brain [3]): 0.003; IC50 (Cytochrome P450 3A4): 700 nM
1.6	O=C(Nc1cccc(Cl)c1)c1cccc(Oc2cccnc2)c1	1960	–

— ChEMBL document CHEMBL2439973, “Discovery of VU0409106: A negative allosteric modulator of mGlu5 with activity in a mouse model of anxiety” (Bioorg Med Chem Lett, 2013)
